Like-named read-outs stand apart in the source and are kept apart here.
Columns and labels:
GSK3B [1] = biological target: T1, GSK3B (Homo sapiens, UniProt P49841); assay: In vitro enzymatic activity assay, GSK3β; format: biochemical; parameters: Full length human GSK3α or GSK3B expressed as N-terminal GST fusion proteins; GST (N); purchased Carna Biosciences (Japan); host or cells: baculovirus host; conditions: 1.0 mM ATP, 1.0 μM peptide substrate, 120 min, 25° C
human GSK3α = biological target: T2, human GSK3α (Homo sapiens, UniProt P49840); assay: In vitro enzymatic activity assay, GSK3α; format: biochemical; conditions: 1.0 mM ATP, 1.0 μM peptide substrate, 120 min, 25° C
T2 construct: Full length human GSK3α or GSK3B expressed as N-terminal GST fusion proteins; GST (N); purchased Carna Biosciences (Japan); host or cells: baculovirus host
T2 sequence (P49840 whole entry, the tested form may be a part): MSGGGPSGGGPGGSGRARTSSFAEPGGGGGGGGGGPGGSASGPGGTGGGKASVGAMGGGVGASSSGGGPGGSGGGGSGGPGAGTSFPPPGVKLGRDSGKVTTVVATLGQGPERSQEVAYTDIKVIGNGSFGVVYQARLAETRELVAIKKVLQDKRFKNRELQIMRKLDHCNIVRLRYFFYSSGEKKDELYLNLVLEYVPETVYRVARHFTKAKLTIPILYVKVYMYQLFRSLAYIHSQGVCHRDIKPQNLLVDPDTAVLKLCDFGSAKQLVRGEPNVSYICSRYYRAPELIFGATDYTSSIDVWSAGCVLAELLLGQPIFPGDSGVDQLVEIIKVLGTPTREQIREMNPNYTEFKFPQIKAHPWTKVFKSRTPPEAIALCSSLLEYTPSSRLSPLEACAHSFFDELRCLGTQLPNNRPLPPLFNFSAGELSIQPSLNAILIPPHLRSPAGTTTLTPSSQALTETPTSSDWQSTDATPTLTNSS

GSK3B [2] = biological target: T1, GSK3B; assay: NanoBRET cellular target engagement assay, Nanoluc-GSK3B in HEK293 cells; format: cell-based; parameters: expressed in transfected cells; conditions: NanoBRET GSK3β IC50, HEK293 cells, tracer K-8, 2 hours, 37° C
GSK3A = biological target: T3, GSK3A (Homo sapiens, UniProt P49840); assay: NanoBRET cellular target engagement assay, Nanoluc-GSK3A in HEK293 cells; format: cell-based; conditions: NanoBRET GSK3α IC50, HEK293 cells, tracer K-8, 2 hours, 37° C
T3 construct: expressed in transfected cells
T3 sequence (P49840 whole entry): as the sequence (P49840 whole entry, the tested form may be a part) above

T1 sequence (P49841 whole entry, the tested form may be a part): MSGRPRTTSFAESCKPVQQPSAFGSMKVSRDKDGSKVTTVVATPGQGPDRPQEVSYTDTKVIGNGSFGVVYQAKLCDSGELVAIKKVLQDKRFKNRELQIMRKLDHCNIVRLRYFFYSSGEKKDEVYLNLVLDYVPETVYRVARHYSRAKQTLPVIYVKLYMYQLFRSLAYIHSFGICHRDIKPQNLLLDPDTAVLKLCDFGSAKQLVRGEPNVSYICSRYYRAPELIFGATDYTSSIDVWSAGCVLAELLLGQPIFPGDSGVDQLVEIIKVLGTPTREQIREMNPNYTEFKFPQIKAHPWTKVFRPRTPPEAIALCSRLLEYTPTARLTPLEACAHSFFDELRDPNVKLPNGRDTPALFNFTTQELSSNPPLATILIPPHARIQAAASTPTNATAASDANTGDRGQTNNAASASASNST

| IC50 (GSK3B [1]; read-out: Enzyme GSK3β (IC50)) [nM] | IC50 (human GSK3α; read-out: Enzyme GSK3α (IC50)) [nM] | IC50 (GSK3B [2]) [nM] | IC50 (GSK3A) [nM] | IC50 (GSK3B [1]; Enzyme GSK3β (IC50)) [nM] | IC50 (human GSK3α; Enzyme GSK3α (IC50)) [nM] | Compound |
| --- | --- | --- | --- | --- | --- | --- |
| 395 | 8.8 | 371 | 6.9 |  |  | CCNCc1cncc(NC(=O)c2c(N)ncn(-c3c(Cl)cc(OC(F)F)cc3Cl)c2=O)c1 [Example 10, 4-amino-1-(2,6-dichloro-4-(difluoromethoxy)phenyl)-N-(5-((ethylamino)methyl)pyridin-3-yl)-6-oxo-1,6-dihydropyrimidine-5-carboxamide] |
| 318 | 6.4 | 231 | 4 |  |  | CCNCc1cncc(NC(=O)c2c(N)ncn(-c3c(Cl)cc(C(F)F)cc3Cl)c2=O)c1 [Example 14, 4-amino-1-(2,6-dichloro-4-(difluoromethyl)phenyl)-N-(5-((ethylamino)methyl)pyridin-3-yl)-6-oxo-1,6-dihydropyrimidine-5-carboxamide] |
| 208 | 4.5 | 119 | 2.2 |  |  | COCc1cc(Cl)c(-n2cnc(N)c(C(=O)Nc3cncc(C(C)(C)N)c3)c2=O)c(Cl)c1 [Example 15, 4-amino-N-(5-(2-aminopropan-2-yl)pyridin-3-yl)-1-(2,6-dichloro-4-(methoxymethyl)phenyl)-6-oxo-1,6-dihydropyrimidine-5-carboxamide] |
| 340 | 7.8 | 271 | 3.8 |  |  | CCNCc1cncc(NC(=O)c2c(N)ncn(-c3c(Cl)cc(OC)cc3Cl)c2=O)c1 [Example 17, 4-amino-1-(2,6-dichloro-4-methoxyphenyl)-N-(5-((ethylamino)methyl)pyridin-3-yl)-6-oxo-1,6-dihydropyrimidine-5-carboxamide] |
| 685 | 14 | 396 | 7.2 |  |  | COc1cc(Cl)c(-n2cnc(N)c(C(=O)Nc3cncc(CNC(C)C)c3)c2=O)c(Cl)c1 [Example 20, 4-amino-1-(2,6-dichloro-4-methoxyphenyl)-N-(5-((isopropylamino)methyl)pyridin-3-yl)-6-oxo-1,6-dihydropyrimidine-5-carboxamide] |
| 217 | 3.2 | 145 | 2.6 |  |  | COc1cc(Cl)c(-n2cnc(N)c(C(=O)Nc3cncc(C4(N)CCCC4)c3)c2=O)c(Cl)c1 [Example 21, 4-amino-N-(5-(1-aminocyclopentyl)pyridin-3-yl)-1-(2,6-dichloro-4-methoxyphenyl)-6-oxo-1,6-dihydropyrimidine-5-carboxamide] |
| 389 | 8.4 | 334 | 5.6 |  |  | CCNCc1cncc(NC(=O)c2c(N)ncn(-c3c(Cl)cc(C(F)(F)F)cc3Cl)c2=O)c1 [Example 22, 4-amino-1-(2,6-dichloro-4-(trifluoromethyl)phenyl)-N-(5-((ethylamino)methyl)pyridin-3-yl)-6-oxo-1,6-dihydropyrimidine-5-carboxamide] |
| 343 | 5 | 239 | 4.3 |  |  | Nc1ncn(-c2c(Cl)cc(C(F)(F)F)cc2Cl)c(=O)c1C(=O)Nc1cncc(CNCCO)c1 [Example 23, 4-amino-1-(2,6-dichloro-4-(trifluoromethyl)phenyl)-N-(5-(((2-hydroxyethyl)amino)methyl)pyridin-3-yl)-6-oxo-1,6-dihydropyrimidine-5-carboxamide] |
| 692 | 13.9 | 715 | 7.5 |  |  | CCOc1cc(Cl)c(-n2cnc(N)c(C(=O)Nc3cncc(CNCCOC)c3)c2=O)c(Cl)c1 [Example 25, 4-amino-1-(2,6-dichloro-4-ethoxyphenyl)-N-(5-(((2-methoxyethyl)amino)methyl)pyridin-3-yl)-6-oxo-1,6-dihydropyrimidine-5-carboxamide] |
| 327 | 5.5 | 269 | 4.4 |  |  | CCOc1cc(Cl)c(-n2cnc(N)c(C(=O)Nc3cncc(CNCCO)c3)c2=O)c(Cl)c1 [Example 26, 4-amino-1-(2,6-dichloro-4-ethoxyphenyl)-N-(5-(((2-hydroxyethyl)amino)methyl)pyridin-3-yl)-6-oxo-1,6-dihydropyrimidine-5-carboxamide] |
| 320 | 9.6 | 699 | 9 |  |  | CCOc1cc(Cl)c(-n2cnc(N)c(C(=O)Nc3cnnc(C(N)=O)c3)c2=O)c(Cl)c1 [Example 28, 5-(4-amino-1-(2,6-dichloro-4-ethoxyphenyl)-6-oxo-1,6-dihydropyrimidine-5-carboxamido)pyridazine-3-carboxamide] |
|  |  | 25000 | 79.2 | 3800 | 92.2 | CCOc1cc(C)c(-n2cnc(N)c(C(=O)Nc3cnnc(C(N)=O)c3)c2=O)c(C)c1 [Example 29, 5-(4-amino-1-(4-ethoxy-2,6-dimethylphenyl)-6-oxo-1,6-dihydropyrimidine-5-carboxamido)pyridazine-3-carboxamide] |
| 1950 | 63.9 | 15800 | 72.2 |  |  | COCc1cc(C)c(-n2cnc(N)c(C(=O)Nc3cnnc(C(N)=O)c3)c2=O)c(C)c1 [Example 30, 5-(4-amino-1-(4-(methoxymethyl)-2,6-dimethylphenyl)-6-oxo-1,6-dihydropyrimidine-5-carboxamido)pyridazine-3-carboxamide] |
| 344 | 6.5 | 268 | 3.7 |  |  | COc1cc(Cl)c(-n2cnc(N)c(C(=O)Nc3cncc([C@@H]4CCCCN4)c3)c2=O)c(Cl)c1 [Example 34, (S)-4-amino-1-(2,6-dichloro-4-methoxyphenyl)-6-oxo-N-(5-(piperidin-2-yl)pyridin-3-yl)-1,6-dihydropyrimidine-5-carboxamide] |
| 282 | 4.6 | 230 | 3.6 |  |  | COc1cc(C)c(-n2cnc(N)c(C(=O)Nc3cccc(C4(N)CCC4)c3)c2=O)c(Cl)c1 [Example 38, 4-amino-N-(3-(1-aminocyclobutyl)phenyl)-1-((S)-2-chloro-4-methoxy-6-methylphenyl)-6-oxo-1,6-dihydropyrimidine-5-carboxamide] |
| 418 | 10.1 | 431 | 5.8 |  |  | Nc1ncn(-c2c(Cl)cccc2Cl)c(=O)c1C(=O)Nc1cncc([C@@H]2CCCN2)c1 [Example 40, (S)-4-amino-1-(2,6-dichlorophenyl)-6-oxo-N-(5-(pyrrolidin-2-yl)pyridin-3-yl)-1,6-dihydropyrimidine-5-carboxamide] |
| 384 | 8.5 | 365 | 6.6 |  |  | Cc1cc(Cl)c(-n2cnc(N)c(C(=O)Nc3cncc([C@@H]4CCCN4)c3)c2=O)c(Cl)c1 [Example 45, (S)-4-amino-1-(2,6-dichloro-4-methylphenyl)-6-oxo-N-(5-(pyrrolidin-2-yl)pyridin-3-yl)-1,6-dihydropyrimidine-5-carboxamide] |
| 489 | 10.5 | 395 | 7.3 |  |  | Nc1ncn(-c2c(Cl)cc(OC(F)F)cc2Cl)c(=O)c1C(=O)Nc1cncc([C@@H]2CCCCN2)c1 [Example 46, (S)-4-amino-1-(2,6-dichloro-4-(difluoromethoxy)phenyl)-6-oxo-N-(5-(piperidin-2-yl)pyridin-3-yl)-1,6-dihydropyrimidine-5-carboxamide] |
